Calls of active or inactive are those of the source. No cut-off for these calls is given here.
Columns and labels:
Liver [1] = test: Anti-NASH activity in GAN diet-induced […] mouse liver assessed as reduction in hepatocyte fat by H and E staining based analysis; type: functional, cell-based
Mus musculus [2] = species: Mus musculus; test: Anti-NASH activity in GAN diet-induced […] mouse assessed as reduction in cleaved caspase 1 level; type: functional, organism-based
Liver [3] = test: Anti-NASH activity in GAN diet-induced […] mouse liver assessed as reduction in hepatocyte fat by Oil Red O staining based assay; type: functional, cell-based
Mus musculus [4] = test: Anti-NASH activity in GAN-induced […] mouse assessed as upregulation of Ucp1 expression in inguinal white adipose tissue at 10 mg/kg; type: functional, organism-based
Mus musculus [5] = species: Mus musculus; test: Anti-NASH activity in GAN diet-induced […] mouse assessed as reduction in Dgat2 level; type: functional, organism-based
[6] = target: T1, Bile acid receptor (Mus musculus) (UniProt Q60641); test: In vivo antagonist activity against FXR in mouse assessed as reduction in Fxr level in presence of GW4064; type: functional
T1 sequence (whole entry): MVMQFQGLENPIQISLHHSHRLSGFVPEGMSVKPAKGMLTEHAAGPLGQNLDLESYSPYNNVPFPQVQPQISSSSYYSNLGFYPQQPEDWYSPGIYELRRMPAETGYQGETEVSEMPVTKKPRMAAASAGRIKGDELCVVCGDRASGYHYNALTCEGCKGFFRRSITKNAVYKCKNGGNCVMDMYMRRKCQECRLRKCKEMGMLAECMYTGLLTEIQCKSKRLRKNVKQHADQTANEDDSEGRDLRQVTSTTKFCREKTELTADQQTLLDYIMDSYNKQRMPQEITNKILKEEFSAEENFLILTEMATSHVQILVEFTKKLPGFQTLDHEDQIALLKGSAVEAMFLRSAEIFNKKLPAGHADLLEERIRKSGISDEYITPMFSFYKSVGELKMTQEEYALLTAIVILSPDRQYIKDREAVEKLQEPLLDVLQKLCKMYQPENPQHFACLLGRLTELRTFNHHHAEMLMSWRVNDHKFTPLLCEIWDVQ

[7] = target: T1, Bile acid receptor (Mus musculus); test: In vivo antagonist activity against FXR in mouse assessed as reduction in Fxr level in presence of CDCA; type: functional
Mus musculus [8] = species: Mus musculus; test: Anti-NASH activity in GAN diet-induced […] mouse assessed as reduction in hepatic cholesterol level; type: functional, organism-based
Liver [9] = test: Anti-NASH activity in GAN diet-induced […] mouse liver assessed as reduction in hepatocyte fat by Sirius red staining based analysis; type: functional, cell-based
Liver [10] = test: Anti-NASH activity in GAN diet-induced […] mouse liver assessed as reduction in hepatocyte collagen deposition by H and E staining based analysis; type: functional, cell-based
Mus musculus [11] = species: Mus musculus; test: Anti-NASH activity in GAN diet-induced […] mouse assessed as bile acid level in serum; type: functional, organism-based
Mus musculus [12] = species: Mus musculus; test: Anti-NASH activity in GAN diet-induced […] mouse assessed as reduction in liver weight; type: functional, organism-based
Mus musculus [13] = species: Mus musculus; test: Anti-NASH activity in GAN diet-induced […] mouse assessed as reduction in Fabp2 mRNA expression level; type: functional, organism-based
Mus musculus [14] = test: Anti-NASH activity in GAN diet-induced […] mouse assessed as reduction of dihydroceramide level in serum administered orally for 12 weeks; type: functional, organism-based; conditions: route po
Mus musculus [15] = species: Mus musculus; test: Anti-NASH activity in GAN diet-induced […] mouse assessed as increase in hepatic bile acid synthesis; type: functional, organism-based
Mus musculus [16] = species: Mus musculus; test: Anti-NASH activity in HFMCD diet-induced […] mouse assessed as decrease in collagen deposition by Sirius red staining based analysis; type: functional, organism-based
Mus musculus [17] = test: Anti-NASH activity in GAN-induced […] mouse assessed as increase in rectal temperature at 10 mg/kg; type: functional, organism-based
Mus musculus [18] = species: Mus musculus; test: Anti-NASH activity in GAN diet-induced […] mouse assessed as reduction of bile acid pool size in ileum; type: functional, organism-based
Mus musculus [19] = species: Mus musculus; test: Anti-NASH activity in GAN diet-induced […] mouse assessed as downregulation of P-ycard level; type: functional, organism-based
Mus musculus [20] = species: Mus musculus; test: Anti-NASH activity in GAN diet-induced […] mouse assessed as reduction in Col1a1 level; type: functional, organism-based
Liver [21] = test: Anti-NASH activity in GAN diet-induced […] mouse liver assessed as reduction in macrosteatosis by H and E staining based analysis; type: functional
Liver [22] = test: Anti-NASH activity in GAN diet-induced […] mouse liver assessed as reduction in macrosteatosis by Sirius red staining based analysis; type: functional
[23] = Drug metabolism in C57BL6 mouse Gall bladder assessed as ((1S,3aS,5aR,5bR,7aR,9R,11aR,11bR,13aR,13bR)-9-hydroxy-1-isopropyl-5a,5b,8,8,11a-pentamethylicosahydro-1H-cyclopenta[a]chrysene-3a-carbonyl)glycine formation at 10 mg/kg, po administered as single dose measured after 2 hrs; type: ADME, organism-based; conditions: in vivo
Mus musculus [24] = species: Mus musculus; test: Anti-NASH activity in GAN diet-induced […] mouse assessed as reduction in hepatic triglycerides level; type: functional, organism-based
Mus musculus [25] = species: Mus musculus; test: Anti-NASH activity in GAN diet-induced […] mouse assessed as reduction in Fabp4 mRNA expression level; type: functional, organism-based
Mus musculus [26] = species: Mus musculus; test: Anti-NASH activity in GAN diet-induced […] mouse assessed as reduction in Tgf-beta level; type: functional, organism-based
Mus musculus [27] = species: Mus musculus; test: Anti-NASH activity in GAN diet-induced […] mouse assessed as suppression of Fgf15 expression; type: functional, organism-based
Mus musculus [28] = test: Anti-NASH activity in GAN diet-induced […] mouse assessed as reduction of glycosyl-ceramide level in serum administered orally for 12 weeks; type: functional, organism-based; conditions: route po
[29] = target: T1, Bile acid receptor (Mus musculus); test: In vivo antagonist activity against FXR in mouse assessed as reduction in Fgf15 level in presence of CDCA; type: functional
Mus musculus [30] = test: Anti-NASH activity in GAN-induced […] mouse assessed as upregulation of […] expression in inguinal white adipose tissue at 10 mg/kg; type: functional, organism-based
Mus musculus [31] = species: Mus musculus; test: Anti-NASH activity in GAN diet-induced […] mouse assessed as reduction in Col3a1 level; type: functional, organism-based
[32] = target: T1, Bile acid receptor (Mus musculus); test: In vivo antagonist activity against FXR in microbeta depleted mouse assessed as reduction in taurocholic acid induced Fgf15 mRNA expression in ileum at 10 mg/kg, po incubated for 2 to 48 hrs; type: functional, organism-based; conditions: time 2-48 hrs
Mus musculus [33] = test: Anti-NASH activity in HFMCD diet-induced […] mouse assessed as reduction in hepatic TG concentration at 10 to 30 mg/kg, po for 4 weeks; type: functional, organism-based; conditions: dose 10-30 mg/kg
Mus musculus [34] = test: Anti-NASH activity in GAN-induced […] mouse assessed as reduction in fat/lean index at 10 mg/kg, IG measured after 12 weeks; type: functional, organism-based
[35] = target: T1, Bile acid receptor (Mus musculus); test: In vivo antagonist activity against FXR in mouse assessed as reduction in Shp level in presence of GW4064; type: functional
[36] = target: T1, Bile acid receptor (Mus musculus); test: In vivo antagonist activity against FXR in microbeta depleted mouse assessed as reduction in taurocholic acid induced Shp mRNA expression in ileum at 10 mg/kg, po incubated for 2 to 48 hrs; type: functional, organism-based; conditions: time 2-48 hrs

CCCC(=O)O[C@@H]1CC[C@]2(C)[C@H]3CC[C@@H]4[C@H]5[C@H](C(C)C)CC[C@]5(C(=O)NCC(=O)O)CC[C@@]4(C)[C@]3(C)CC[C@H]2C1(C)C
Activity (Liver [1]): Active
Activity (Mus musculus [2]): Active
Activity (Liver [3]): Active
Activity (Mus musculus [4]): Active
Activity (Mus musculus [5]): Active
Activity [6]: Active
Activity [7]: Active
Activity (Mus musculus [8]): Active
Activity (Liver [9]): Active
Activity (Liver [10]): Active
Activity (Mus musculus [11]): Active
Activity (Mus musculus [12]): Active
Activity (Mus musculus [13]): Active
Activity (Mus musculus [14]): Active
Activity (Mus musculus [15]): Active
Activity (Mus musculus [16]): Active
Activity (Mus musculus [17]): Active
Activity (Mus musculus [18]): Active
Activity (Mus musculus [19]): Active
Activity (Mus musculus [20]): Active
Activity (Liver [21]): Active
Activity (Liver [22]): Active
Drug metabolism [23]: Metabolite_Detected
Activity (Mus musculus [24]): Active
Activity (Mus musculus [25]): Active
Activity (Mus musculus [26]): Active
Activity (Mus musculus [27]): Active
Activity (Mus musculus [28]): Active
Activity [29]: Active
Activity (Mus musculus [30]): Active
Activity (Mus musculus [31]): Active
Activity [32]: Active
Activity (Mus musculus [33]): Active
Activity (Mus musculus [34]): Active
Activity [35]: Active
Activity [36]: Active

— ChEMBL document CHEMBL5096210, “Discovery of Betulinic Acid Derivatives as Potent Intestinal Farnesoid X Receptor Antagonists to Ameliorate Nonalcoholic Steatohepatitis” (J Med Chem, 2022)
